The test concerns the target 5-hydroxytryptamine receptor 1B (Homo sapiens, UniProt P28222).

The values below come from BindingDB's records for doi:10.1016/0006-291x(92)90654-4 (Veterans Affairs Medical Center, 1992).

Structures are written as SMILES.

Chain of 5-hydroxytryptamine receptor 1B (P28222 whole entry): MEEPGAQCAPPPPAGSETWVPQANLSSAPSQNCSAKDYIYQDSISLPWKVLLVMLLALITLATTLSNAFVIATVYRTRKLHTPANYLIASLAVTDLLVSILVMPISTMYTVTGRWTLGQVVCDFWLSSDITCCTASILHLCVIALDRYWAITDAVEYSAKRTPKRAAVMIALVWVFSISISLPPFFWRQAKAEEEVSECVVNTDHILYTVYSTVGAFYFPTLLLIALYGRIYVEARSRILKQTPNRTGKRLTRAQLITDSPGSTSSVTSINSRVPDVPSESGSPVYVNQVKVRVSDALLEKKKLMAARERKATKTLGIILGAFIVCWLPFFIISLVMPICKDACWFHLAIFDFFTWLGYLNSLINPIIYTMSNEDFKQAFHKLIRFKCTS

As for `CN1C2CCC1CC(OC(=O)c1c[nH]c3ccccc13)C2` (stereo unspecified), the Ki (usually the equilibrium dissociation constant of an inhibitor or competing ligand from its target) is more than 10000 nM.

As to `COc1ccc2[nH]cc(C3=CCNCC3)c2c1` [5-Methoxy-3-(1,2,3,6-tetrahydro-pyridin-4-yl)-1H-indole(RU-24969)], the affinity corresponds to a Ki of 12.4 nM.

`CN1CC(C(=O)N[C@]2(C)O[C@@]3(O)C4CCCN4C(=O)[C@H](Cc4ccccc4)N3C2=O)CC2c3cccc4[nH]cc(c34)CC21` (stereo partly drawn) [7-Methyl-4,6,6a,7,8,9,10,10a-octahydro-indolo[4,3-fg]quinoline-9-carboxylic acid ((2R,5S,10bS)-5-benzyl-10b-hydroxy-2-methyl-3,6-dioxo-octahydro-oxazolo[3,2-a]pyrrolo[2,1-c]pyrazin-2-yl)-amide] returned a Ki of 0.006 nM.

Consider `O=C(CCCN1CCC2(CC1)C(=O)NCN2c1ccccc1)c1ccc(F)cc1` [8-[4-(4-fluorophenyl)-4-oxidanylidene-butyl]-1-phenyl-1,3,8-triazaspiro[4.5]decan-4-one], for which the Ki is more than 10000 nM.

Compound `CN1CCN(c2nc3cc(C(F)(F)F)ccc3n3cccc23)CC1` [CAS_109028-10-6] yielded a Ki of 0.04 nM.

Compound `CN1C[C@@H](NS(=O)(=O)N(C)C)C[C@@H]2c3cccc4c3c(cn4C)C[C@H]21` [MESULERGINE] returned a Ki of 640 nM.

Compound `CC(C)(C)NCC(O)COc1cccc2[nH]c(C#N)cc12` (stereo unspecified) [NSC_155346] registered a Ki of 22 nM.

Consider `Cc1cc(C(C)(C)C)c(O)c(C)c1CC1=NCCN1` [SMR000059324], for which the affinity, expressed as Ki, was 0.26 nM.

Consider `FC(F)(F)c1cccc(N2CCNCC2)c1` [TFMPP], for which the affinity, expressed as Ki, was 28 nM.

In turn, `Clc1cccc(N2CCNCC2)c1` [mCPP] yielded a Ki of 90 nM.

`CSc1ccc2c(c1)C(N1CCN(C)CC1)Cc1ccccc1S2` (stereo unspecified) [methanesulfonic acid;1-methyl-4-(3-methylsulfanyl-5,6-dihydrobenzo[b][1]benzothiepin-5-yl)piperazine]: the inhibitory constant (Ki) came out at 0.2 nM.
